One data set concerns Aβ42. Put plainly: Screening for γ-secretase-modulating activity in SKNBE2 cells carrying APP 695 wild type: Aβ42 in cell supernatant (Alphalisa). The conditions noted are these: Homo sapiens, SKNBE2, SKNBE2 cells carrying APP 695 wild type, overnight incubation. The class given is cell-based. The gist of the method:
(§1)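 SKNBE2 cells expressing wild-type APP695 were incubated overnight at 37° C with test compound at several concentrations. Aβ42 and Aβtotal in supernatant were measured by AlphaLISA sandwich immunoassays. IC50 came from 4-parameter non-linear fits of percent of compound-free control versus log concentration.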

The subject of a further data set is Aβtotal. Put plainly: Screening for γ-secretase-modulating activity in SKNBE2 cells carrying APP 695 wild type: Aβtotal in cell supernatant (Alphalisa). In kind it is cell-based. As to conditions: Homo sapiens, overnight incubation. The gist of the method: as §1
A general note: Bead proximity is the source of the signal in Alpha formats.

Drawing on US9145399B2, “Substituted bicyclic triazole derivatives as gamma secretase modulators” (Janssen Pharmaceuticals, Inc., priority 2010, dated 2015), this text covers melting point and IC50 for 21 molecules.

A word on the melting point: it is the temperature of the solid-liquid transition. For orientation: IC50 means the concentration needed to halve the response being measured. High values mean lower potency, low ones higher potency.

As to `COc1cc(Nc2nc3n(n2)CCOC3c2ccccc2C(F)(F)F)ccc1-n1cnc(C)c1` (stereo not drawn) [Compound 47, 5,6-dihydro-N-[3-methoxy-4-(4-methyl-1H-imidazol-1-yl)phenyl]-8-[2-(trifluoromethyl)phenyl]-8H-[1,2,4]triazolo[5,1-c][1,4]oxazin-2-amine], the melting point amounted to 202.9 °C. The molecule further displayed an IC50 in the data set with Aβ42 of 55 nM. The molecule also displayed an IC50 in the data set on Aβtotal of over 10 µM.
For `COc1cc(Nc2nc3n(n2)CCCC3c2cc(C(F)(F)F)ccc2F)ccc1-n1cnc(C)c1` (stereo not drawn) [Compound 48, 8-[2-fluoro-5-(trifluoromethyl)phenyl]-5,6,7,8-tetrahydro-N-[3-methoxy-4-(4-methyl-1H-imidazol-1-yl)phenyl]-[1,2,4]triazolo[1,5-a]pyridin-2-amine], in that order: 204.4 °C, 30 nM and 5.75 µM.
Consider `COc1cc(Nc2nc3n(n2)CCCC3c2ccccc2F)ccc1-n1cnc(C)c1` (stereo not drawn) [Compound 49, 8-(2-fluorophenyl)-5,6,7,8-tetrahydro-N-[3-methoxy-4-(4-methyl-1H-imidazol-1-yl)phenyl]-[1,2,4]triazolo[1,5-a]pyridin-2-amine], for which the melting point amounted to 188.3 °C. In addition, the IC50 with Aβ42 came out at 29 nM. The same molecule gave a half-inhibitory concentration (IC50) in the data set on Aβtotal of over 10 µM.
The like results for `COc1cc(Nc2nc3n(n2)CCCC3c2ccc(C(F)(F)F)cc2)ccc1-n1cnc(C)c1` (stereo not drawn) [Compound 50, 5,6,7,8-tetrahydro-N-[3-methoxy-4-(4-methyl-1H-imidazol-1-yl)phenyl]-8-[4-(trifluoromethyl)phenyl][1,2,4]triazolo[1,5-a]pyridin-2-amine] were, in that order, 229.7 °C, 19 nM and 8.13 µM.
In turn, `FC(F)(F)c1ccccc1C1CCCn2nc(Nc3ccc(-c4ccncc4)cc3)nc21` (stereo not drawn) [Compound 75, 5,6,7,8-tetrahydro-N-[4-(4-pyridinyl)phenyl]-8-[2-(trifluoromethyl)phenyl]-[1,2,4]triazolo[1,5-a]pyridin-2-amine] showed a melting point of 240.4 °C. Besides, the IC50 with Aβ42 came to 257 nM. Moreover, the IC50 in the data set with Aβtotal was over 10 µM.
The molecule `Cc1cc(-c2ccc(Nc3nc4n(n3)CCOC4c3ccccc3Cl)cc2)ccn1` (stereo not drawn) [Compound 76, 8-(2-chlorophenyl)-5,6-dihydro-N-[4-(2-methyl-4-pyridinyl)phenyl]-8H-[1,2,4]triazolo[5,1-c][1,4]oxazin-2-amine] displayed a melting point of 216.1 °C. The molecule also gave an IC50 in the data set on Aβ42 of 46 nM. In the data set with Aβtotal, this molecule had an IC50 of over 10 µM.
The like results for `COc1cc(Nc2nc3n(n2)CCCC3c2ccccc2Cl)ccc1-c1ccnc(C)c1` (stereo not drawn) [Compound 77] were, in that order, 167.9 °C, 40 nM and over 10 µM.
For `COc1cc(Nc2nc3n(n2)CCOC3c2ccc(F)cc2C)ccc1-c1ccnc(C)c1` (stereo not drawn) [Compound 92, 8-(4-fluoro-2-methylphenyl)-5,6-dihydro-N-[3-methoxy-4-(2-methyl-4-pyridinyl)phenyl]-8H-[1,2,4]triazolo[5,1-c][1,4]oxazin-2-amine], in that order: 201.9 °C, 21 nM and over 10 µM.
For `COc1cc(Nc2nc3n(n2)CCCC3c2ccccc2F)ccc1-c1ccnc(C)c1` (stereo not drawn) [Compound 99, 8-(2-fluorophenyl)-5,6,7,8-tetrahydro-N-[3-methoxy-4-(2-methyl-4-pyridinyl)phenyl]-[1,2,4]triazolo[1,5-a]pyridin-2-amine], in that order: 214.9 °C, 50 nM and over 10 µM.
For the molecule `COc1cc(Nc2nc3n(n2)CCOC3c2ccc(F)cc2F)ccc1-c1ccnc(C)c1` (stereo not drawn) [Compound 100, 8-(2,4-difluorophenyl)-5,6-dihydro-N-[3-methoxy-4-(2-methyl-4-pyridinyl)phenyl]-8H-[1,2,4]triazolo[5,1-c][1,4]oxazin-2-amine], the melting point was 217.2 °C. The molecule further had an IC50 with Aβ42 of 36 nM. Besides, in the data set with Aβtotal, the IC50 is over 10 µM.
Turning to `COc1cccc(C2CCCn3nc(Nc4ccc(-c5ccnc(C)c5)c(F)c4)nc32)c1` (stereo not drawn) [Compound 102, N-[3-fluoro-4-(2-methyl-4-pyridinyl)phenyl]-5,6,7,8-tetrahydro-8-(3-methoxyphenyl)-[1,2,4]triazolo[1,5-a]pyridin-2-amine], the melting point turned out to be 148.4 °C. In the data set with Aβ42, this molecule yielded an IC50 of 29 nM. The IC50 with Aβtotal was over 10 µM.
For `COc1cccc(C2CCCn3nc(Nc4ccc(-c5ccnc(C)c5)cc4)nc32)c1` (stereo not drawn) [Compound 103, 5,6,7,8-tetrahydro-8-(3-methoxyphenyl)-N-[4-(2-methyl-4-pyridinyl)phenyl]-[1,2,4]triazolo[1,5-a]pyridin-2-amine], in that order: 221.6 °C, 59 nM and over 10 µM.
The like results for `COc1cc(C2CCCn3nc(Nc4ccc(-c5ccnc(C)c5)cc4)nc32)ccc1F` (stereo not drawn) [Compound 106, 8-(4-fluoro-3-methoxyphenyl)-5,6,7,8-tetrahydro-N-[4-(2-methyl-4-pyridinyl)phenyl]-[1,2,4]triazolo[1,5-a]pyridin-2-amine] were, in that order, 150.6 °C, 40 nM and over 15 µM.
For `COc1cc(C2CCCn3nc(Nc4ccc(-c5ccnc(C)c5)c(OC)c4)nc32)ccc1F` (stereo not drawn) [Compound 107, 8-(4-fluoro-3-methoxyphenyl)-5,6,7,8-tetrahydro-N-[3-methoxy-4-(2-methyl-4-pyridinyl)phenyl]-[1,2,4]triazolo[1,5-a]pyridin-2-amine], in that order: 147.4 °C, 32 nM and over 15 µM.
`COc1cc(Nc2nc3n(n2)CCCC3c2c(F)cccc2Cl)ccc1-c1ccnc(C)c1` (stereo not drawn) [Compound 110, 8-(2-chloro-6-fluorophenyl)-5,6,7,8-tetrahydro-N-[3-methoxy-4-(2-methyl-4-pyridinyl)phenyl]-[1,2,4]triazolo[1,5-a]pyridin-2-amine] displayed a melting point of 174 °C. In addition, the IC50 in the data set on Aβ42 turned out to be 50 nM. In the data set with Aβtotal, this molecule had an IC50 of over 10 µM.
`Cc1cc(-c2ccc(Nc3nc4n(n3)CCCC4c3cc(C(F)(F)F)ccc3F)cc2)ccn1` (stereo not drawn) [Compound 114, 8-[2-fluoro-5-(trifluoromethyl)phenyl]-5,6,7,8-tetrahydro-N-[4-(2-methyl-4-pyridinyl)phenyl]-[1,2,4]triazolo[1,5-a]pyridin-2-amine] yielded a melting point of 194.4 °C. Also, the IC50 in the data set on Aβ42 was 41 nM. In the data set with Aβtotal, this molecule came in with an IC50 of over 10 µM.
The like results for `Cc1cc(-c2ccc(Nc3nc4n(n3)CCCC4c3c(F)cccc3Cl)cc2)ccn1` (stereo not drawn) [Compound 116, 8-(2-chloro-6-fluorophenyl)-5,6,7,8-tetrahydro-N-[4-(2-methyl-4-pyridinyl)phenyl]-[1,2,4]triazolo[1,5-a]pyridin-2-amine] were, in that order, 234.4 °C, 71 nM and over 10 µM.
For `COc1cc(Nc2nc3n(n2)CCCC3c2cc(C(F)(F)F)ccc2C)ccc1-c1ccnc(C)c1` (stereo not drawn) [Compound 151, 5,6,7,8-tetrahydro-N-[3-methoxy-4-(2-methyl-4-pyridinyl)phenyl]-8-[2-methyl-5-(trifluoromethyl)phenyl]-[1,2,4]triazolo[1,5-a]pyridin-2-amine], in that order: 146.8 °C, 31 nM and 7.08 µM.
The like results for `COc1cc(Nc2nc3n(n2)CCCC3c2cc(C(F)(F)F)ccc2F)ccc1-c1ccnc(C)c1` (stereo not drawn) [Compound 182, 8-[2-fluoro-5-(trifluoromethyl)phenyl]-5,6,7,8-tetrahydro-N-[3-methoxy-4-(2-methyl-4-pyridinyl)phenyl]-[1,2,4]triazolo[1,5-a]pyridin-2-amine] were, in that order, 173.1 °C, 44 nM and over 10 µM.
`COc1ccc(F)c(C2CCCn3nc(Nc4ccc(-c5ccnc(C)c5)cc4)nc32)c1` (stereo not drawn) [Compound 183, 8-(2-fluoro-5-methoxyphenyl)-5,6,7,8-tetrahydro-N-[4-(2-methyl-4-pyridinyl)phenyl]-[1,2,4]triazolo[1,5-a]pyridin-2-amine] yielded a melting point of 204.6 °C. The IC50 in the data set on Aβ42 came to 41 nM. The IC50 in the data set on Aβtotal was over 10 µM.
The like results for `COc1ccc(F)c(C2CCCn3nc(Nc4ccc(-c5ccnc(C)c5)c(F)c4)nc32)c1` (stereo not drawn) [Compound 184, 8-(2-fluoro-5-methoxyphenyl)-N-[3-fluoro-4-(2-methyl-4-pyridinyl)phenyl]-5,6,7,8-tetrahydro-[1,2,4]triazolo[1,5-a]pyridin-2-amine] were, in that order, 221.5 °C, 23 nM and over 10 µM.
